SMILES strings stand for the structures.

Results on eight compounds are retold here after US9562043B2 (EA Pharma Co., Ltd., priority 2012, dated 2017).

One test concerns the target T1, TRPA1 channel (Mus musculus, UniProt Q8BLA8).
T1 construct: from tissue; host or cells: living male ICR mice (sole of the left leg, sensory nerves)
Nature of the test: AITC-induced pain behavior evaluation test (mouse licking model). The class given is in vivo. The settings on record: male ICR mice; p.o. 30 mpk, 1 h before AITC (0.1%) s.c. to sole; licking time in 5 min vs vehicle. As to the method: AITC-Induced Pain Behavior Evaluation Test
To evaluate the effectiveness of the test substance in vivo, allylisothiocyanate (AITC)-induced pain behavior evaluation test was performed using mice.
AITC is a selective agonist of the TRPA1 channel, and causes a pain behavior by TRPA1 activation when administered to animal. Therefore, the intensity of the TRPA1 antagonist action of the test substance in the living body can be evaluated by measuring the pain behavior after AITC administration.
1. Administration of Test Substance to Animal
As the animal, male ICR mice (6- to 8-week-old) were used. The mice were fasted the previous day of the test. The test substance was intraperitoneally or orally administered for evaluation. In the case of intraperitoneal administration, the substance was administered 30 min before the AITC administration. In the oral administration, the substance was administered 60 min before the AITC administration.
2. AITC-Induced Pain Behavior Evaluation
3. Calculation of Inhibitory Rate
The licking time of the vehicle administration group in each test was taken as 100%, and the activity rate by administration of each test substance (Licking time on test substance administration/Licking time of vehicle administration group×100) was determined, and the numerical value obtained by subtracting the activity rate from 100 was calculated as an inhibitory rate.

A further test addresses T2, human TRPA1 (Homo sapiens, UniProt O75762).
T2 construct: host or cells: human embryonic kidney-derived 293T cells, transient transfection with pcDNA3.1/zeo(+) plasmid
As to the kind of experiment: Measurement of TRPA1 antagonist activity (intracellular calcium increase, FLIPR). It is filed as cell-based. The settings on record: 293T cells transfected with human TRPA1 expression plasmid, allylisothiocyanate 20 μM stimulation, calcium fluorescence, read-out: antagonism hTRPA1. From the text: Measurement of TRPA1 Antagonist Activity
Human TRPA1 Expression Plasmid
As cDNA encoding human TRPA1 (GenBank accession No. […]), a commercially available product was purchased (manufactured by Kazusa DNA Research Institute, clone No.: pFN21AB7348, item No.: FHC07217). Using this as a template, full-length human TRPA1 gene was amplified using the primer sequences shown below, by reaction using DNA polymerase (manufactured by Stratagene, trade name: PfuUltra High-Fidelity DNA Polymerase).
A recognition site (underlined) of restriction enzyme HindIII was added to the 5′ side, and XbaI site (underlined) was added to the 3′ side, and GTT of the template sequence was changed to termination codon TAG (bold). The obtained double stranded DNA was enzyme-digested with HindIII and XbaI, and introduced into a multicloning site of expression plasmid pcDNA3.1/zeo(+) (manufactured by Invitrogen) to give a human TRPA1 expression plasmid.
Human embryonic kidney-derived 293T cells were cultured in Dulbecco's Modified Eagle Medium containing 10% fetal bovine serum, 10 unit penicillin, and 10 μg streptomycin, plated on a petri dish having a diameter of 10 cm at 3×10^6 cells, and cultured for 24 hr. A medium containing a reduced amount of serum (manufactured by Invitrogen, trade name: OPTI-MEM, 600 μL), a gene insertion reagent (manufactured by Mirus Bio, trade name: Mirus TransIT-293, 18 μL), and human TRPA1 expression plasmid (6 μg) were mixed, the total amount of the mixture was added to the cells on the petri dish to allow for gene transfer. The cells were recovered about 8 hr later, plated on a poly-D-lysine coated 384 well black/clear bottom plate at 7,500-12,000 cells/well, and cultured overnight.
Measurement of Intracellular Calcium Increase
The 384 well plate was recovered, and the medium was removed. A calcium-bonded fluorescent indicator (manufactured by Molecular Device, trade name: Calcium4 Assay Kit, 40 μL) dissolved in assay buffer (1×HBSS, 20 mM HEPES, pH 7.2) was added, and the cells were stained in a 37° C. incubator for 1 hr. The cells were taken out at room temperature and left standing for 15 min or more. A test substance (10 μL) was added by a 384 well type dispenser, and the mixture was incubated at room temperature for 10 min. Then, allylisothiocyanate (12.5 μL) at a final concentration of 20 μM was added by a fluorescence imaging plate reader (manufactured by Molecular Device, FLIPR), and changes in the relative fluorescence intensity were measured for 5 min.
Test Substance Preparation
The test substance was dissolved in dimethyl sulfoxide and serially diluted with an assay buffer containing 0.1% bovine serum albumin (1×HBSS, 20 mM HEPES, pH 7.2) to a 5-fold concentration of the evaluation concentration. Allylisothiocyanate, which is a known TRPA1 activator, was dissolved in dimethyl sulfoxide to 100 mM, and further diluted 5-fold (100 μM) of the final concentration, like the test substance.
Calculation of Antagonist Activity
Under the test substance-free conditions, the maximum variation range of the fluorescence intensity before and after allylisothiocyanate stimulation was defined to be 100% activity rate, and the variation range before and after buffer stimulation was defined as 0% activity rate. The activity rate on addition of the test substance was determined, and the numerical value obtained by subtracting the activity rate from 100 was defined to be an inhibitory rate. IC50, which is the concentration of the test substance necessary for reaching the 50% inhibitory rate, was calculated from the sigmoid approximate curve by a spreadsheet software Excel-Fit.

T2 sequence (O75762 whole entry): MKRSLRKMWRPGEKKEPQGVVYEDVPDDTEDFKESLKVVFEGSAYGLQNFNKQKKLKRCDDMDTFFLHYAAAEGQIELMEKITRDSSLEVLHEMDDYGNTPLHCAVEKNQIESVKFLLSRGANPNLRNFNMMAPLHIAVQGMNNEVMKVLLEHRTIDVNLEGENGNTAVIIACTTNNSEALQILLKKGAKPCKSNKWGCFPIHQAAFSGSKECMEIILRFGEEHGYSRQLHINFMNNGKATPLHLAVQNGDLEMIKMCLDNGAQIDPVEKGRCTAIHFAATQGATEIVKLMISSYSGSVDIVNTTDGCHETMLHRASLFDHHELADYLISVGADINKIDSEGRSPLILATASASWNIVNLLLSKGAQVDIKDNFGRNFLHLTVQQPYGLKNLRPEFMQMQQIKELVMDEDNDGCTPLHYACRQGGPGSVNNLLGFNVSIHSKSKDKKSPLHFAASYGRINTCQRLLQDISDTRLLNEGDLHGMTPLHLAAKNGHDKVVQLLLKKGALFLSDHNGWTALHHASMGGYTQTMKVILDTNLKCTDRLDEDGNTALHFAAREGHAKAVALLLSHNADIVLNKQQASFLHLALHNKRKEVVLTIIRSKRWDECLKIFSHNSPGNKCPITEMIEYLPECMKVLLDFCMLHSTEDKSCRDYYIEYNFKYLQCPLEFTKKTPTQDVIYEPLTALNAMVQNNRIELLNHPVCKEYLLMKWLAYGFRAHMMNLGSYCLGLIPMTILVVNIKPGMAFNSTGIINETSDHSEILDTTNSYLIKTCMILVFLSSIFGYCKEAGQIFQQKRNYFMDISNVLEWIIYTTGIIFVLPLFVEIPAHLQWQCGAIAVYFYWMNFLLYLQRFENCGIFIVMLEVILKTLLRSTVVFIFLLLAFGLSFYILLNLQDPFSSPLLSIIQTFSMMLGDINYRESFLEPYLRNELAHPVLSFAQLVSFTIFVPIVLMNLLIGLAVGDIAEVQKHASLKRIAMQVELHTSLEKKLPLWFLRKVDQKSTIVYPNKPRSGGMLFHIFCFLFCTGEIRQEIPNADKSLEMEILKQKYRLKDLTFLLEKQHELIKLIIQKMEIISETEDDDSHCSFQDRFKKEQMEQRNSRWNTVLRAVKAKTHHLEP
T1 sequence (Q8BLA8 whole entry): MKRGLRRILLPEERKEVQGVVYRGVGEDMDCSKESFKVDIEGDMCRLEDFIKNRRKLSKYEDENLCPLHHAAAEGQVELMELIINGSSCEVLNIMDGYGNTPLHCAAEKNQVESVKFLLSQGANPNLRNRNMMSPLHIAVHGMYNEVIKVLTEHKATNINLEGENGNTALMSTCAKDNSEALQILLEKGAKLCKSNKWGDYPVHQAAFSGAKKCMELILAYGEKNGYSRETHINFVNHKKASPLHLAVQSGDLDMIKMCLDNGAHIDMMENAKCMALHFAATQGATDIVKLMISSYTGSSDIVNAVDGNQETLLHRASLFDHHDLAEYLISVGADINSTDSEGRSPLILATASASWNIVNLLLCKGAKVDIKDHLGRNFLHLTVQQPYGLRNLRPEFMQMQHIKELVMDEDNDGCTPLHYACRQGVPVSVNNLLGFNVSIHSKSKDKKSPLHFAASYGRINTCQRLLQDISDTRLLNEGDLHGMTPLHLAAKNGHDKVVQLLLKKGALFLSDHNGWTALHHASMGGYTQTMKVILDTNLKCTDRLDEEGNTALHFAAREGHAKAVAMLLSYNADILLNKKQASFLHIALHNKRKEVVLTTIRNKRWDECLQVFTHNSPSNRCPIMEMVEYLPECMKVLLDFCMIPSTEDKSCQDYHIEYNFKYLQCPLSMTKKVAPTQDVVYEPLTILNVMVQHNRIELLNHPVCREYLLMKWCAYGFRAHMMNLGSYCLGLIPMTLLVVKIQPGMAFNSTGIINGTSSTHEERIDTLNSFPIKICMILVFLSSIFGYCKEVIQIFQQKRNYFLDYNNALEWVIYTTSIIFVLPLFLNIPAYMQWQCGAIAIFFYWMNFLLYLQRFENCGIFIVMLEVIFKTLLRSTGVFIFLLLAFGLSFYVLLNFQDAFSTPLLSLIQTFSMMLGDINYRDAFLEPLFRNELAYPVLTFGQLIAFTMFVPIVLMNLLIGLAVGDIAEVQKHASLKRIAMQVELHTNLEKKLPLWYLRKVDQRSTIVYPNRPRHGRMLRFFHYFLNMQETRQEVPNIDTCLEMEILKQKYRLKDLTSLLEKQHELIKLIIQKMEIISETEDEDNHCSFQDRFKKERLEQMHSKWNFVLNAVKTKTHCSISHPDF

Turning to `O=C(NCc1nc(-c2ccc(C(F)(F)F)cc2)cs1)[C@@H]1CCCN1S(=O)(=O)c1ccc(Cl)s1` [compound 1, (2S)-1-(5-chlorothiophene-2-sulfonyl)-N-({4-[4-(trifluoromethyl)phenyl]thiazol-2-yl}methyl)pyrrolidine-2-carboxamide], the “mouse licking model (p.o. 1 h, 30 mpk) (% inh.)” value at TRPA1 channel is reported as 36 % inh. Further, the IC50 on human TRPA1 came to 140 nM.
The like results for `O=C(NCc1nc(-c2ccc(OC(F)(F)F)cc2)cs1)[C@@H]1C=CCN1S(=O)(=O)c1ccc(Cl)s1` [compound 20, (2S)-1-(5-chlorothiophene-2-sulfonyl)-N-({4-(4-(trifluoromethoxy)phenyl]-thiazol-2-yl}methyl)-3,4-didehydropyrrolidine-2-carboxamide] were, in that order, 43 % inh and 90 nM.
As to `O=C(NCc1nc(-c2ccc(C(F)(F)F)cc2)cs1)[C@@H]1CCCN1S(=O)(=O)c1ccsc1` [compound 49, (2S)-1-(3-thienylsulfonyl)-N-({4-[4-(trifluoromethyl)-phenyl)thiazol-2-yl}methyl)-pyrrolidine-2-carboxamide], the IC50 on human TRPA1 came to 340 nM.
Same read-out and setting: with `O=C(NCc1nc(-c2ccc(C(F)(F)F)cc2)cs1)[C@@H]1CCCN1S(=O)(=O)c1cccc(F)c1` [compound 50, (2S)-1-(3-fluorophenyl) sulfonyl-N-({4-(4-(trifluoro-methyl)phenyl]thiazol-2-yl)-methyl)pyrrolidine-2-carboxamide] the figure was 100 nM; with `O=C(NCc1nc(-c2ccc(C(F)(F)F)cc2)cs1)[C@@H]1CCCN1S(=O)(=O)c1ccc(F)c(F)c1` [compound 51, (2S)-1-(3,4-difluorophenyl)sulfonyl-N-({4-[4-(trifluoromethyl)-phenyl)thiazol-2-yl}methyl)pyrrolidine-2-carboxamide], 60 nM.
Consider `O=C(NCc1nc(-c2ccc(C(F)(F)F)cc2)cs1)[C@@H]1CCCN1S(=O)(=O)c1ccc(F)c(Cl)c1` [compound 52, (2S)-1-(3-chloro-4-fluoro-phenyl)sulfonyl-N-({4-[4-(trifluoromethyl)phenyl]-thiazol-2-yl}methyl)pyrrolidine-2-carboxamide], for which, at human TRPA1, the IC50 stood at 290 nM.
Same read-out and setting: then `O=C(NCc1nc(-c2ccc(C(F)(F)F)cc2)cs1)[C@@H]1CCCN1S(=O)(=O)c1ccc(F)cc1F` [compound 53, (2S)-1-(2,4-difluorophenyl)sulfonyl-N-{{4-[4-(trifluoromethyl)-phenyl]thiazol-2-yl}methyl)pyrrolidine-2-carboxamide], with 4600 nM.
As for `O=C(NCc1nc(-c2ccc(C(F)(F)F)cc2)cs1)[C@@H]1CCCN1S(=O)(=O)c1cc(F)cc(F)c1` [compound 54, (2S)-1-(3,5-difluorophenyl)sulfonyl-N-({4-[4-(trifluoromethyl)-phenyl]thiazol-2-yl}methyl)pyrrolidine-2-carboxamide], the IC50 at human TRPA1 was found to be 170 nM.
